This note sets out measurements from ChEMBL document CHEMBL4622974, “Leveraging an Open Science Drug Discovery Model to Develop CNS-Penetrant ALK2 Inhibitors for the Treatment of Diffuse Intrinsic Pontine Glioma” (J Med Chem, 2020).

Series [1] addresses T1, Activin receptor type-1 (Homo sapiens, UniProt Q04771).
T1 sequence (Q04771 whole entry): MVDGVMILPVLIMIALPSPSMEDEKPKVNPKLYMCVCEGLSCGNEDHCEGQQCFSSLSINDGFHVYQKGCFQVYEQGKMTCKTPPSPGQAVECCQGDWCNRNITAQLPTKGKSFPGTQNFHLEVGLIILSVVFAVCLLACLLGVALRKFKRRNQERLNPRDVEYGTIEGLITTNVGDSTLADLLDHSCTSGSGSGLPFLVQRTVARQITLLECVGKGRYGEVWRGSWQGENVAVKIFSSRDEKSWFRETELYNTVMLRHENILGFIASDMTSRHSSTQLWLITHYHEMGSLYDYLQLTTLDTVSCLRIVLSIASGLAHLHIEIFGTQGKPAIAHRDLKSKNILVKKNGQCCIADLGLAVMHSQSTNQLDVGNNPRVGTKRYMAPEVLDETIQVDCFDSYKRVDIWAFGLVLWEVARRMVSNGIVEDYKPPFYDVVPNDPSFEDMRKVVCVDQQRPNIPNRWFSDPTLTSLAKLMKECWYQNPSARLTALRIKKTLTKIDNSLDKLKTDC
The series is described as follows: Inhibition of human ALK2 using casein as substrate in presence of [gamma-33P]-ATP by radiometric hotspot assay.

Series [2] addresses T1, Activin receptor type-1. The series is described as follows: Competitive displacement of PBI-6908 from nanoluciferase-fused ALK2 (unknown origin) expressed in HEK293 cells incubated for 2 hrs by NanoBRET NanoGlo substrate based NanoBRET assay. It is filed as cell-based.
Series [3] concerns the target T2, TGF-beta receptor type-1 (Homo sapiens, UniProt P36897).
T2 sequence (P36897 whole entry): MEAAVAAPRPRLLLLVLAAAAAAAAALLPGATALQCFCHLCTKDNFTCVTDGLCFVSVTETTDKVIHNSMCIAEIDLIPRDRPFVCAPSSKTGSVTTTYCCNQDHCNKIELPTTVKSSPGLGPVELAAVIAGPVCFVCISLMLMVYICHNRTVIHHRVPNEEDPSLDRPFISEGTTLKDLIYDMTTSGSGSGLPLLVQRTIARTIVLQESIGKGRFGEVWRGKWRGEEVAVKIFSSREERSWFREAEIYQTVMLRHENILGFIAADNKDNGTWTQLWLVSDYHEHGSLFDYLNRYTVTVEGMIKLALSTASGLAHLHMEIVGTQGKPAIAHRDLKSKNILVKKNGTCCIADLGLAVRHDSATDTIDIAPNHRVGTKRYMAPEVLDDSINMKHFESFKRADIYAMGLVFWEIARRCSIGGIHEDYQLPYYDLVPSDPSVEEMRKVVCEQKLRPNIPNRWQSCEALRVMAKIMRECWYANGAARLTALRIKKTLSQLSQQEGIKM
The series is described as follows: Inhibition of recombinant human ALK5 expressed in HEK293 cells transfected with CAGA-luciferase and Renilla luciferase reporter after 24 hrs by dual luciferase reporter assay. It is filed as cell-based.

Series [4] addresses T2, TGF-beta receptor type-1. The series is described as follows: Inhibition of human ALK5 using casein as substrate in presence of [gamma-33P]-ATP by radiometric hotspot assay. Type of series: ADME.
The target in series [5] is Voltage-gated inwardly rectifying potassium channel KCNH2 (Homo sapiens, UniProt Q12809). Put plainly: Inhibition of human ERG expressed in HEK293 cells after 5 mins by IonWorks barracuda patch clamp method. It is filed as cell-based.
Sequence of Voltage-gated inwardly rectifying potassium channel KCNH2 (Q12809 whole entry): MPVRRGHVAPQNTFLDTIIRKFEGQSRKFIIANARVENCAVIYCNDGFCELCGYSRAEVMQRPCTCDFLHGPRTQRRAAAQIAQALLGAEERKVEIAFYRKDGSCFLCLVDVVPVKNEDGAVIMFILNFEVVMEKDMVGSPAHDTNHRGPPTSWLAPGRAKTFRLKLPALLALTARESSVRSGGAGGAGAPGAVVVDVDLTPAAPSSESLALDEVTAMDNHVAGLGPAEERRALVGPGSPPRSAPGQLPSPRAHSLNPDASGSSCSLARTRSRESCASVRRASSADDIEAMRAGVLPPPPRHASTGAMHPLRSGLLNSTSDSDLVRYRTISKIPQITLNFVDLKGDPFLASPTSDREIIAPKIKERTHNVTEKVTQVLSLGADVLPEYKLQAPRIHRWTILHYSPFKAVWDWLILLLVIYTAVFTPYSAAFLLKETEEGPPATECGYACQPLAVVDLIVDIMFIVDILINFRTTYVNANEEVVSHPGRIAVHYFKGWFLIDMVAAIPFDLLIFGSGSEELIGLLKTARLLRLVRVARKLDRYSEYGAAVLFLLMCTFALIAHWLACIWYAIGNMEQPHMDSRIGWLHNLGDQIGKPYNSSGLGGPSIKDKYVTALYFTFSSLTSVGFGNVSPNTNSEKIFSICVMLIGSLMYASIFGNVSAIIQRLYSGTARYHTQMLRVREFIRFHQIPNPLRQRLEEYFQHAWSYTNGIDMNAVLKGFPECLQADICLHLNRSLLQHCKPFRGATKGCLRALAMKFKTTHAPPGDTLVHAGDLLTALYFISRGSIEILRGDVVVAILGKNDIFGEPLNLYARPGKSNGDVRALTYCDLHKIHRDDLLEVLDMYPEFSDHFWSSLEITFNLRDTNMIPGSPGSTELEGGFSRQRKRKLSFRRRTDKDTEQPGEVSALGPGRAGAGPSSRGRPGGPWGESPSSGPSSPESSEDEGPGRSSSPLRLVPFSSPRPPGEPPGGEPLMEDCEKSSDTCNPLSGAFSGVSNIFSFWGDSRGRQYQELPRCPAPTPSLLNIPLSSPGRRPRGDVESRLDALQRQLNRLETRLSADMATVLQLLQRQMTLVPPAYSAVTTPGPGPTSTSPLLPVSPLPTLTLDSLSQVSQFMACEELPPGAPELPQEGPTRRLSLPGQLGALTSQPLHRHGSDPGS
A short description of series [6]: Selectivity ratio of IC50 for human ALK4 to IC50 for human ALK2. It is filed as ADME.
Series [7] addresses T3, Activin receptor type-1B (Homo sapiens, UniProt P36896).
T3 sequence (P36896 whole entry): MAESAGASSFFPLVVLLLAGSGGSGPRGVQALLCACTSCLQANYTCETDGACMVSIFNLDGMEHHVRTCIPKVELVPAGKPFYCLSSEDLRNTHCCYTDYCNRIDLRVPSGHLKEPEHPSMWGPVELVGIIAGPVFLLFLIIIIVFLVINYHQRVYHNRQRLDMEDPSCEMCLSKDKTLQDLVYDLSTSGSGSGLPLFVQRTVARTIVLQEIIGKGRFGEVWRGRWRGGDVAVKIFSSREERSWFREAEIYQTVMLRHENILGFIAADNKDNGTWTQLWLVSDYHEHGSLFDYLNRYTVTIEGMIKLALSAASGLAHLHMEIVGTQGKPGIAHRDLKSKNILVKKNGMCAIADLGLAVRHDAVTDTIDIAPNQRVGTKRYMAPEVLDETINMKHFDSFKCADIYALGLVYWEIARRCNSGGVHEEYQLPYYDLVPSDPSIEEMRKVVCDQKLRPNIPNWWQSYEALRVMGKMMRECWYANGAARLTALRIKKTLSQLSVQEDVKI
Put plainly: Inhibition of human ALK4 using casein as substrate in presence of [gamma-33P]-ATP by radiometric hotspot assay. It is filed as ADME.

Consider `CCc1c(-c2ccc(N3CCNCC3)cc2)cncc1-c1cc(OC)c(OC)c(OC)c1`, for which the IC50 in series [1] was 181 nM; in series [2], 589 nM; in series [3], > 5000 nM; in series [4], > 5000 nM.

Regarding `COc1cc(-c2cncc(-c3ccc(N4CCOCC4)cc3)c2C)cc(OC)c1OC`, the IC50 in series [1] was 28 nM; in series [2], 334 nM; in series [3], > 5000 nM; in series [4], 2360 nM.

In the case of `COc1cc(-c2cncc(-c3ccc(N4CCNCC4)cc3)c2N)cc(OC)c1OC`, the IC50 in series [1] was 461 nM; in series [2] it was 255 nM; in series [3] it was > 5000 nM; in series [4], > 5000 nM.

Regarding `COc1cc(-c2cncc(-c3ccc(N4CCCNCC4)cc3)c2C)cc(OC)c1OC`, the IC50 in series [1] was 13 nM; in series [2] it was 83 nM; in series [3], 4530 nM; in series [4] it was 3050 nM.

As for `COc1cc(-c2cncc(-c3ccc(N4CCNCC4)cc3)c2C2CC2)cc(OC)c1OC`, the IC50 in series [1] was 42 nM; in series [2], 159 nM; in series [3] it was > 5000 nM; in series [4] it was 4660 nM.

As to `COc1cc(-c2cncc(-c3ccc(N4CCNCC4)cc3)c2C(F)(F)F)cc(OC)c1OC`, the IC50 in series [1] was 67 nM; in series [2], 184 nM; in series [3] it was > 5000 nM; in series [4], > 5000 nM.

As for `COc1cc(-c2cncc(-c3ccc(N4CCNCC4)cc3)c2C#N)cc(OC)c1F`, the IC50 in series [1] worked out at 11 nM; in series [2] it was 49 nM; in series [3], 1510 nM; in series [4], 487 nM.

`COc1cc(-c2cncc(-c3ccc(OC4CCN(C)CC4)cc3)c2C)cc(OC)c1OC`: the IC50 was 6 nM in series [1], 67 nM in series [2], 2090 nM in series [3] and 1650 nM in series [4].

For the molecule `COc1cc(-c2cncc(-c3ccc(N4CCN(C(C)C)CC4)cc3)c2C)cc(OC)c1OC`, the IC50 is 3100 nM in series [5]; 7 nM in series [1]; 73 nM in series [2]; 1820 nM in series [3]; 2240 nM in series [4].

In the case of `COc1cc(OC)cc(-c2cncc(-c3ccc(N4CCNCC4)cc3)c2C)c1`, the IC50 in series [1] is 39 nM; in series [2], 440 nM; in series [3] it was > 5000 nM; in series [4], > 5000 nM.

Turning to `COc1cc(-c2cncc(-c3ccc(N4C[C@@H](C)N[C@@H](C)C4)cc3)c2C)cc(OC)c1OC`, the IC50 in series [5] was determined as 5900 nM; in series [1], 8 nM; in series [2] it was 40 nM; in series [3], 1430 nM; in series [4] it was 1050 nM.

`COc1cc(-c2cncc(-c3ccc(CN4CCN(C)CC4)cc3)c2C)cc(OC)c1OC`: the IC50 was 20 nM in series [1], 108 nM in series [2], > 5000 nM in series [3] and 2640 nM in series [4].

As to `COc1cc(-c2cncc(-c3ccc(N4CCN(CCF)CC4)cc3)c2C)cc(OC)c1OC`, the IC50 in series [1] is 17 nM; in series [2], 178 nM; in series [3], > 5000 nM; in series [4], 3210 nM.

Regarding `COc1cc(-c2cncc(-c3ccc(C4=CCN(C)CC4)cc3)c2C)cc(OC)c1OC`, the IC50 in series [1] is 14 nM; in series [2], 102 nM; in series [3], 7800 nM; in series [4], 2520 nM.

As to `COc1cc(-c2cncc(-c3ccc(N4CCNCC4)cc3)c2Cl)cc(OC)c1OC`, the “Ratio IC50” value in series [6] is recorded as 60. Moreover, the IC50 turned out to be 962 nM in series [7]; 2700 nM in series [5]; 16 nM in series [1]; 57 nM in series [2]; 9450 nM in series [3]; 1330 nM in series [4].

Take `COc1cc(-c2cncc(-c3ccc(N4CCS(=O)(=O)CC4)cc3)c2C)cc(OC)c1OC`: the IC50 in series [1] was 16 nM; in series [2] it was 169 nM; in series [3], > 5000 nM; in series [4] it was 1230 nM.

With `COc1cc(-c2cncc(-c3ccc(N4CCN(C(C)=O)CC4)cc3)c2C)cc(OC)c1OC`, the IC50 in series [1] is 22 nM; in series [2], 267 nM; in series [3], > 5000 nM; in series [4], 2520 nM.

`COc1cc(-c2cncc(-c3ccc(C4CCNCC4)cc3)c2C)cc(OC)c1OC`: the IC50 in series [1] came to 9 nM; in series [2] it was 54 nM; in series [3], 3420 nM; in series [4], 1750 nM.

`COc1cc(-c2cncc(-c3ccc(N4CCN(C)CC4)cc3)c2C)cc(OC)c1OC`: the IC50 in series [1] is 9 nM; in series [2], 56 nM; in series [3], > 5000 nM; in series [4] it was 4850 nM.

For the molecule `COc1cc(-c2cncc(-c3ccc(N4CCNCC4)cc3)c2C#N)cc(OC)c1OC`, in series [6], the “Ratio IC50” value is reported as 86. The IC50 in series [7] was found to be 257 nM; in series [5] it was 6000 nM; in series [1], 3 nM; in series [2] it was 15 nM; in series [3], 679 nM; in series [4], 731 nM.

In the case of `COc1cc(-c2cncc(-c3ccc(N4CCNCC4)cc3)c2OC)cc(OC)c1OC`, the IC50 in series [1] was 103 nM; in series [2] it was 233 nM; in series [3], > 5000 nM; in series [4], > 5000 nM.

In the case of `COc1cc(-c2cncc(-c3ccc(N4CCN(C(=O)N(C)C)CC4)cc3)c2C)cc(OC)c1OC`, the IC50 is 4 nM in series [1], 149 nM in series [2], > 5000 nM in series [3] and > 5000 nM in series [4].

Take `COc1cc(-c2cncc(-c3ccc(N4CCNCC4)cc3)c2F)cc(OC)c1OC`: the “Ratio IC50” value in series [6] came to 42. In addition, the IC50 came out at 630 nM in series [7]; 15 nM in series [1]; 32 nM in series [2]; 2180 nM in series [3]; 880 nM in series [4].

As for `COc1cc(-c2cncc(-c3ccc(N4CCNCC4)cc3)c2)cc(OC)c1OC`, in series [6], the “Ratio IC50” value is listed as 36. Besides, the IC50 in series [7] came out at 462 nM.
